The values that follow come from patent US7022736B2, “Enzyme inhibitors” (Istituto Di Ricerche Di Biologia Molecolare P Angeletti SpA, priority 1998, dated 2006).

Assay [1] deals with T1, HCV RdRp (NS5B RNA-dependent RNA polymerase) (Hepatitis C virus genotype 1b, UniProt P26663).
T1 construct: The HCV NS5B protein is the viral RdRp; made in house; host or cells: insect cells infected with recombinant baculovirus
The assay is described as follows: Inhibition of hepatitis C virus RdRp (poly(A)/oligo(U), [3H]UTP incorporation). It counts as biochemical. The method, boiled down:
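Baculovirus-expressed recombinant NS5B (20 nM) polymerised on poly(A) template (10 μg/ml) with oligo(U)12 primer, 10 μM UTP plus [3H]UTP, pH 7.5 Tris buffer with 5 mM MgCl2, 1 h at 22 °C. Acid-insoluble radioactivity counted on filters; IC50 fitted from residual activity with slope term.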

The target of assay [2] is T2, reverse transcriptase of HIV (HIV-1 RT) (Human immunodeficiency virus type 1 group M subtype B, UniProt P03366).
T2 construct: the reverse transcriptase of HIV (HIV -1RT) from Boehringer Mannhium; purchased Boehringer Mannheim (printed 'Boehringer Mannhium')
The assay can be described thus: Inhibition of HIV-1 reverse transcriptase ([3H]dTTP incorporation). Conditions: Tables IXa-IXc; unit inferred; NA=not active as an inhibitor. Type of assay: biochemical, Human Immunodeficiency Virus-1. How it is done:
Test for Inhibition of Human Immunodeficiency Virus-1 Reverse Transcriptase
Analogous assays employed the reverse transcriptase of HIV (HIV -1RT) from Boehringer Mannhium.
Incorporation of radioactive dTTP was measured as follows. The standard reaction (100 μl) was carried out in a buffer containing 50 mM tris/HCl pH 8.2, 2.5 mM MgCl 2, 1 mM DTT, 80 mM KCl, 5 mM EGTA, 0.05% Triton X-100, 1 μCi[3H] dTTP (40 Ci/mmol, NEN), 10 μM […] and 10 μg/ml poly(A)/dT (from Pharmacia).

[3] abbreviates: Tables I-VIII, 20 nM NS5B, 1 hour at 22° C., read-out: IC 50 (μM), HCV-polymerase.
[4] abbreviates: Tables IXa-IXc, unit inferred, read-out: HCV (IC50).

SMILES strings stand for the structures. Where two headings read alike, the source gives them in different places. Some results are limits rather than exact numbers.

T1 sequence (P26663 2420-3010): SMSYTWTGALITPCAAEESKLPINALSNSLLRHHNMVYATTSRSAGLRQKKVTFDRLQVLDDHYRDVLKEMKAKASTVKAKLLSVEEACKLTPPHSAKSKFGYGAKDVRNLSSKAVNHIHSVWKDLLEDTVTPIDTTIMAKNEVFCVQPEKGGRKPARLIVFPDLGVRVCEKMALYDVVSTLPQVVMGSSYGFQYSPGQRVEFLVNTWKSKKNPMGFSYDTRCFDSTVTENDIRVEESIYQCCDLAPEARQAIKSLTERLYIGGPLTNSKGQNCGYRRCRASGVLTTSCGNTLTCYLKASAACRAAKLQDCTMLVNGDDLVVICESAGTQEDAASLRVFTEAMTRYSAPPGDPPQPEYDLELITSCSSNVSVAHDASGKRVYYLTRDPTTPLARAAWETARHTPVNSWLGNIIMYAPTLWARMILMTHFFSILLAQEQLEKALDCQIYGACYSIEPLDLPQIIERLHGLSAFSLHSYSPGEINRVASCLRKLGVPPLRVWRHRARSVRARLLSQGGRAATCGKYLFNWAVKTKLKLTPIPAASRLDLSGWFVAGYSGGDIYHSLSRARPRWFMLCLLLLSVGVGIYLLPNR

For `O=C(O)C(O)=CC(=O)c1ccccc1` [Example 1], the results for the IC50 in assay [1] (setting [3]), in assay [1] (setting [4]) and in assay [2] were 5.6 µM, 5.6 µM and 90 µM, respectively.

As to `O=C(O)C(O)=CC(=O)c1cccc(OCc2ccccc2)c1` [Example 4], the IC50 in assay [1] (setting [3]) was 8 µM; in assay [1] (setting [4]), 8 µM; in assay [2], greater than 100 µM. Take `O=C(O)C(O)=CC(=O)c1cccc(OCc2c(F)cccc2F)c1` [Example 7]: the IC50 was 2.92 µM in assay [1] (setting [3]), 3.3 µM in assay [1] (setting [4]) and 61 µM in assay [2]. The like results for `O=C(O)C(O)=CC(=O)c1ccccc1OCc1ccccc1` [Example 8] were, in that order, 44 µM, 44 µM and 19 µM. Take `C=CCOc1ccccc1C(=O)C=C(O)C(=O)O` [Example 16]: the IC50 was 4.3 µM in assay [1] (setting [3]), 4.3 µM in assay [1] (setting [4]) and greater than 100 µM in assay [2]. In the case of `O=C(O)C(O)=CC(=O)c1cccc(OCCc2ccccc2)c1` [Example 18], the IC50 in assay [1] (setting [3]) stood at 2.2 µM; in assay [1] (setting [4]) it was 2.2 µM; in assay [2], 30 µM. For the molecule `Cc1cccc(C(=O)C=C(O)C(=O)O)c1` [Example 19], the IC50 in assay [1] (setting [3]) is 11.9 µM; in assay [1] (setting [4]), 12 µM; in assay [2] it was 77 µM. The like results for `N#CCCCOc1ccccc1C(=O)C=C(O)C(=O)O` [Example 20] were, in that order, 0.38 µM, 0.38 µM and 27 µM. Regarding `Cc1ccc(OCCCC#N)c(C(=O)C=C(O)C(=O)O)c1` [Example 21], the IC50 in assay [1] (setting [3]) is 0.955 µM; in assay [1] (setting [4]), 1 µM; in assay [2] it was greater than 50 µM. Turning to `O=C(O)C(O)=CC(=O)c1cccc(O)c1` [Example 23], the IC50 in assay [1] (setting [3]) is 0.94 µM; in assay [1] (setting [4]), 1 µM; in assay [2], 59 µM. As to `O=C(O)C(=O)Nc1cccc(C(=O)C=C(O)C(=O)O)c1` [Example 24], the IC50 stood at 19 µM in assay [1] (setting [3]), 19 µM in assay [1] (setting [4]) and 71 µM in assay [2]. As for `O=C(O)CCCOc1ccccc1C(=O)C=C(O)C(=O)O` [Example 27], the IC50 is 2.84 µM in assay [1] (setting [3]), 3 µM in assay [1] (setting [4]) and greater than 50 µM in assay [2].

`N#CCCCOc1ccc(Cl)cc1C(=O)C=C(O)C(=O)O` [Example 36]: the IC50 was determined as 1.6 µM in assay [1] (setting [3]), 1.6 µM in assay [1] (setting [4]) and 24 µM in assay [2]. For `O=C(O)C(O)=CC(=O)c1ccccc1Cc1ccc(F)cc1` [Example 40], the IC50 in assay [1] (setting [3]) was determined as 8.3 µM; in assay [1] (setting [4]) it was 8.3 µM; in assay [2], 12 µM.

Consider `N#CCCCOc1ccc(O)cc1C(=O)C=C(O)C(=O)O` [Example 53], for which the IC50 is 0.115 µM in assay [1] (setting [3]), 0.115 µM in assay [1] (setting [4]) and 37 µM in assay [2]. `O=C(O)C(O)=CC(=O)c1cccc(NS(=O)(=O)c2cccc3ccccc23)c1` [Example 78]: the IC50 in assay [1] (setting [3]) worked out at 0.67 µM; in assay [1] (setting [4]), 0.67 µM; in assay [2] it was 35 µM. In the case of `N#Cc1cccc(Cl)c1COc1cccc(C(=O)C=C(O)C(=O)O)c1` [Example 107], the IC50 in assay [1] (setting [3]) worked out at 0.14 µM; in assay [1] (setting [4]), 0.14 µM; in assay [2], 58 µM. Regarding `COc1cc(C)c(C#N)c(COc2cccc(C(=O)C=C(O)C(=O)O)c2)c1` [Example 111], the IC50 worked out at 0.12 µM in assay [1] (setting [3]), 0.12 µM in assay [1] (setting [4]) and 80 µM in assay [2]. With `N#Cc1ccccc1OCc1cccc(C(=O)C=C(O)C(=O)O)c1` [Example 112], the IC50 in assay [1] (setting [3]) was 1.33 µM; in assay [1] (setting [4]) it was 1.33 µM; in assay [2], 90 µM. Take `N#Cc1ccc(Br)cc1COc1cccc(C(=O)C=C(O)C(=O)O)c1` [Example 113]: the IC50 in assay [1] (setting [3]) came to 0.1 µM; in assay [1] (setting [4]) it was 0.1 µM; in assay [2], 90 µM. For the molecule `O=C(O)C(O)=CC(=O)c1cccc(NS(=O)(=O)c2cc(Cl)cc(Cl)c2)c1` [Example 117], the IC50 in assay [1] (setting [3]) came to 0.14 µM; in assay [1] (setting [4]), 0.14 µM; in assay [2], 100 µM. Consider `O=C(O)C(O)=CC(=O)c1cccc(NS(=O)(=O)c2c(Cl)cccc2Cl)c1` [Example 120], for which the IC50 in assay [1] (setting [3]) stood at 0.36 µM; in assay [1] (setting [4]), 0.36 µM; in assay [2] it was 80 µM.

For the molecule `N#Cc1c(Cl)cc(Cl)cc1COc1cccc(C(=O)C=C(O)C(=O)O)c1` [Example 126], the IC50 was determined as 0.056 µM in assay [1] (setting [3]), 0.056 µM in assay [1] (setting [4]) and 100 µM in assay [2]. For the molecule `O=C(O)C(O)=CC(=O)c1cc(O)cc(OCc2ccccc2)c1` [Example 155], the IC50 in assay [1] (setting [3]) turned out to be 1.4 µM; in assay [1] (setting [4]), 1.4 µM; in assay [2], 130 µM. For `O=C(O)C(O)=CC(=O)c1cc2c(s1)CCCC2c1ccccc1` (centres unmarked) [Example 214], in assay [1] (setting [3]), the IC50 was 17 µM.

Consider `O=C(O)C(O)=CC(=O)c1ccc(N2CCc3ccccc3C2)s1` [Example 215], for which the IC50 in assay [1] (setting [3]) amounted to 15.3 µM.

In turn, `O=C(O)C(=O)CC(=O)c1ccco1` [Example 216] gave an IC50 in assay [1] of 50 µM. For the molecule `Cc1ccc(C(=O)CC(=O)C(=O)O)o1` [Example 217], the IC50 in assay [1] (setting [3]) is 58 µM. Same read-out and setting: to `Cc1c[nH]c(C)c1C(=O)C=C(O)C(=O)O` [Example 219] belongs 23.7 µM. Consider `N#Cc1cccc(Cn2ccc(C(=O)C=C(O)C(=O)O)c2)c1` [Example 220], for which the IC50 in assay [1] (setting [3]) turned out to be 4.6 µM. Still for that read-out and setting: under `Cn1cc(C(=O)C=C(O)C(=O)O)cc1Cc1cccc(F)c1` [Example 221] stands 20.6 µM; under `O=C(O)C(O)=CC(=O)c1ccsc1` [Example 222], 4 µM. Turning to `O=C(O)C(O)=CC(=O)c1cc(Cl)sc1Cl` [Example 224], in assay [1] (setting [3]), the IC50 was 50 µM. In the case of `Cc1ccc(-c2sccc2C(=O)C=C(O)C(=O)O)cc1` [Example 226], the IC50 in assay [1] (setting [3]) was determined as 17 µM. Still for that read-out and setting: to `O=C(O)C(O)=CC(=O)c1ccsc1Cc1cccs1` [Example 227] belongs 15 µM; to `O=C(O)C(O)=CC(=O)c1ccsc1Cc1ccc(F)cc1` [Example 228], 17.8 µM; to `O=C(O)C(O)=CC(=O)c1ccsc1Cc1cccc(F)c1` [Example 229], 80 µM. Consider `O=C(O)C(O)=CC(=O)c1ccsc1Cc1ccccc1F` [Example 230], for which the IC50 in assay [1] (setting [3]) is 8.6 µM.

Consider `O=C(O)C(O)=CC(=O)c1ccsc1Cc1ccc(Cl)cc1` [Example 231], for which the IC50 in assay [1] (setting [3]) turned out to be 9.4 µM.

For `O=C(O)C(O)=CC(=O)c1ccsc1Cc1cccc(Cl)c1` [Example 232], the IC50 in assay [1] (setting [3]) came to 11.8 µM.

In the case of `O=C(O)C(O)=CC(=O)c1ccsc1Cc1ccccc1Cl` [Example 233], in assay [1] (setting [3]), the IC50 amounted to 9.2 µM.

As to `O=C(O)C(O)=CC(=O)c1ccsc1Sc1ccc(F)cc1` [Example 234], the IC50 in assay [1] (setting [3]) worked out at 14.5 µM. On the same count and under the same terms, under `O=C(O)C(O)=CC(=O)c1ccsc1Sc1cccc(Cl)c1` [Example 235] stands 7.5 µM. Consider `O=C(O)C(O)=CC(=O)c1csc2ccccc12` [Example 236], for which the IC50 in assay [1] (setting [3]) stood at 26 µM. Still for that read-out and setting: to `Cc1cc(C(=O)C=C(O)C(=O)O)c(C)o1` [Example 237] belongs 14 µM. With `CC1(C(=O)C=C(O)C(=O)O)CC1` [Example 239], in assay [1] (setting [3]), the IC50 stood at 9.4 µM. With `CCC(C)C(=O)/C=C(\O)C(=O)O` (centres unmarked) [Example 240], in assay [1] (setting [3]), the IC50 turned out to be 18 µM.

With `CC(C)(C)C(=O)C=C(O)C(=O)O` [Example 241], the IC50 in assay [1] (setting [3]) stood at 37 µM.

For the molecule `CC1=CCC(C(=O)C=C(O)C(=O)O)CC1` (centres unmarked) [Example 242], the IC50 in assay [1] (setting [3]) is 12.8 µM.

On to `O=C(O)C(O)=CC(=O)C(c1ccccc1)c1ccccc1` [Example 244], for which the IC50 in assay [1] (setting [3]) was 77 µM. In the case of `CCCCS(=O)(=O)N1CCCC(Cc2ccc(Cl)cc2)(C(=O)C=C(O)C(=O)O)C1` (centres unmarked) [Example 245], in assay [1] (setting [3]), the IC50 is 81.4 µM. Regarding `O=C(O)C(O)=CC(=O)C1(c2ccccc2)CCN(S(=O)(=O)c2cccc(Cl)c2)CC1` [Example 246], the IC50 in assay [1] (setting [3]) stood at 18 µM. As for `O=C(O)/C(O)=C/C(=O)C1(Cc2ccc(Cl)cc2)CCCN(Cc2ccccc2)C1` (centres unmarked) [Example 247], in assay [1] (setting [3]), the IC50 turned out to be 45 µM. As for `O=C(O)C(O)=CC(=O)C1(c2ccccc2)CCN(S(=O)(=O)c2cccc3cccnc23)CC1` [Example 248], the IC50 in assay [1] (setting [3]) came to 10 µM. Turning to `O=C(O)C(O)=CC(=O)C1(c2ccccc2)CCN(C(=O)N(c2ccccc2)c2ccccc2)CC1` [Example 249], the IC50 in assay [1] (setting [3]) came to 60 µM.

With `O=C(O)C(O)=CC(=O)C1(c2ccccc2)CCN(S(=O)(=O)c2ccc(Cl)c(Cl)c2)CC1` [Example 250], the IC50 in assay [1] (setting [3]) worked out at 17 µM. Still for that read-out and setting: under `O=C(O)C(O)=CC(=O)C1(c2ccccc2)CCN(S(=O)(=O)c2cc(Cl)c(Cl)cc2Cl)CC1` [Example 251] stands 21 µM; under `O=C(O)/C(O)=C/C(=O)C1(Cc2ccc(Cl)cc2)CCCN(S(=O)(=O)c2ccc(Br)cc2)C1` (centres unmarked) [Example 252], 61 µM. For `O=C(O)C(O)=CC(=O)C1=CCCCC1` [Example 254], the IC50 in assay [1] (setting [3]) worked out at 14 µM. For `CC1=C(C(=O)C=C(O)C(=O)O)CCC1` [Example 255], the IC50 in assay [1] (setting [3]) was found to be 16.7 µM.

Regarding `O=C(O)C(O)=CC(=O)C1CCCCC1` [Example 256], the IC50 in assay [1] (setting [3]) was 25 µM.

Turning to `O=C(C=C(O)C(=O)O)CC1CCCCC1` [Example 257], in assay [1] (setting [3]), the IC50 was 50 µM.
